What was measured:
human blood samples = test: Blood profile analysis (hematological parameters); format: cell-based; conditions: human blood, 5, 80 and 200 µg·mL^−1, 37 °C, 1 h
Method: (§1) Human blood samples were freshly collected from ten healthy volunteers and divided into tubes containing the anticoagulant agent ethylenediamine tetraacetic acid (EDTA), according to the protocols approved by the National Institute of Health and the Food and Drug Administration.
The blood profile analysis was performed using an automatic hematological analyzer Beckman Coulter ACT 5 Diff OV, (Beckman Coulter International S.A., Nyon, Switzerland) for the determination of different hematological parameters, such as red blood cells (RBCs) count ([…]), hemoglobin (HGB) g·dL^−1), hematocrit (HCT) (%), mean corpuscular volume (MCV) (in femtoliters, fl), mean corpuscular hemoglobin (MCH) (pg), mean corpuscular hemoglobin concentration (MCHC), red cell distribution width (RDW), white blood cells (WBCs) (10^9/L), neutrophils (NE) (%), lymphocytes (LY) (%), monocytes (MO) (%), eosinophils (EO) (%), basophils (BA) (%), and platelets (PLTs) (10^9/L), after exposure to free chrysin, ChrPCL/PVAMCs, or ChrPHB/PVAMCs, and without exposure to any agent. Briefly, the sample preparation was performed as follows: A 100 µL sample of whole blood was added to 900 µL of PBS. Then, either chrysin, ChrPCL/PVAMCs, or ChrPHB/PVAMCs were added to this diluted blood to achieve three concentrations: low, high, and very high (5, 80, and 200 µg·mL^−1, respectively). […]

[1] = test system: MDA-MB-231 human breast cancer cells; test: MTT cell viability assay; format: cell-based; conditions: MDA-MB-231, 48 h, for MCs expressed as encapsulated chrysin content, read-out: IC50 (inhibitory concentration of chrysin for 50% viability)
Method: Epithelial human breast cancer MDA-MB-231 cells were grown in Dulbecco’s Modified Eagle′s—Medium (DMEM) growth medium (pH 7.4) supplemented with 10% Fetal Bovine Serum (FBS) and 50 µg·mL^−1 gentamycin at 37 °C in a 5% humidified CO2 incubator.
In the present study, the cell viability of MDA-MB-231 breast cancer line was evaluated via the MTT assay. The method relies on the conversion of the yellow 3-(4,5-dimethylthiazol-2-yl)-2,5-diphenyl tetrazolium bromide (MTT) to purple formazan crystals. The reduction of MTT is catalyzed by the mitochondrial dehydrogenase enzyme and is therefore a measure for cell viability. MDA-MB-231 cells were exposed to free chrysin, ChrPCL/PVAMCs, or ChrPHB/PVAMCs in their exponential phase of growth. More specifically, in a 96-well plate (Corning, NY, USA), a number of 1 × 10^4 cells/well were seeded, and after 24 h (80% confluency) they were treated with different concentrations of ChrPCL/PVAMCs or ChrPHB/PVAMCs ranging between 0–400 µg·mL^−1. Due to the different loading capacity of chrysin in each type of MCs, free chrysin (dissolved in DMSO) was added accordingly, in equal concentrations (µM), with the encapsulated chrysin in the MCs, as estimated in Section 3.5. […] Finally, a Synergy HTX BioTEK plate reader (with a reference wavelength of 630 nm) was used to determine the absorbance measurement at 545 nm. […]

Hemolysis assay = format: cell-based, human; conditions: human, washed human red blood cells (RBC suspension), pH 7.2, 24 h, 37 °C, free chrysin solution in DMSO (5%), read-out: Percentage of Hemolysis
Method: as §1
(§2) The hemocompatibility of free chrysin and the produced micro-formulations was evaluated via the hemolysis assay performed using a biochemical analyzer Konelab 30, Thermo Scientific. The experimental procedure was as follows: Whole blood samples were centrifuged for 10 min at 1500 rpm to remove plasma. The obtained cell pellets were washed three times with sterile PBS (10 mM, pH 7.2) to separate the red blood cells (RBCs) from other blood components, such as the white blood cells, plasma proteins, and excess antibodies, centrifuged and finally re-suspended at 5 mL PBS. The hemolysis assay was performed by adding 100 µL of the RBC suspension to 900 µL of PBS, containing several concentrations (5, 20, 40, 60, 80, 100, 200, 300, 400, 500 µg·mL^−1) of free chrysin, ChrPCL/PVAMCs, or ChrPHB/PVAMCs. The positive (+) control sample of hemolysis used (100% hemolysis) consisted of 900 µL of ultrapure water and 100 µL of washed RBCs. The negative (−) control sample (0% hemolysis) consisted of 900 µL PBS and 100 µL of washed RBCs. PBS and PBS containing either free chrysin, ChrPCL/PVAMCs, or ChrPHB/PVAMCs were used as blank samples. All samples were incubated for 24 h at 37 °C, under agitation at 120 rpm. After incubation, they were centrifuged at 700 rpm for 5 min, and the absorbance of the supernatant was measured at 541 nm. The % hemolysis was calculated after subtracting the blank values, and by setting the control (+) value as 100% of hemolysis. The absorbance was transformed to hemolysis percentage using the following equation: Percentage of hemolysis (%)=ODSample − ODNegative control/ODPositive control − ODNegative control where OD stands for Optical density.

human RBCs = test: Hemolysis assay; format: cell-based
Method: as §1, §2

- PLT values compared to negative control (human blood samples): significant decrease
- hematological parameters (RBCs, HGB, HCT, MCV, MCH, MCHC, RDW, WBCs, NE, LY, MO, EO, BA) compared to negative control (human blood samples): did not display significant deviation
- IC50 [1]: 112 µM
SMILES: O=c1cc(-c2ccccc2)oc2cc(O)cc(O)c12 [chrysin, 5,7-dihydroxyflavone]
- hemolysis at 24 h, 5 µg·mL^−1 (Hemolysis assay; 5 µg·mL^−1): 1.2%
- hemolysis at 24 h, 20 µg·mL^−1 (Hemolysis assay; 20 µg·mL^−1): 2.1%
- hemolysis at 24 h, 40 µg·mL^−1 (Hemolysis assay; 40 µg·mL^−1): 2.7%
- hemolysis at 24 h, 60 µg·mL^−1 (Hemolysis assay; 60 µg·mL^−1): 3%
- hemolysis at 24 h, 80 µg·mL^−1 (Hemolysis assay; 80 µg·mL^−1): 3.5%
- hemolysis at 24 h, 100 µg·mL^−1 (Hemolysis assay; 100 µg·mL^−1): 6.8%
- hemolysis at 24 h, 200 µg·mL^−1 (Hemolysis assay; 200 µg·mL^−1): 7%
- hemolysis at 24 h, 300 µg·mL^−1 (Hemolysis assay; 300 µg·mL^−1): 7.3%
- hemolysis at 24 h, 400 µg·mL^−1 (Hemolysis assay; 400 µg·mL^−1): 7.9%
- hemolysis at 24 h, 500 µg·mL^−1 (Hemolysis assay; 500 µg·mL^−1): 8.2%
- hemoglobin release from RBCs (micrographs) (human RBCs; 500 µg·mL^−1): hemoglobin release from RBCs is obvious
- hemolytic activity (human RBCs; concentrations between 100 and 500 µg·mL^−1, diluted in 5% DMSO): greater than 5%

Reference: publication PMC7831015, “Evaluation of the Hemocompatibility and Anticancer Potential of Poly(ε-Caprolactone) and Poly(3-Hydroxybutyrate) Microcarriers with Encapsulated Chrysin” (Pharmaceutics, 2021)
